Experimental data published in the CheMixHub viscosity set.

Test: xn = mol fraction of the nth substance listed

O=[N+]([O-])[O-].O=[N+]([O-])[O-].O=[N+]([O-])[O-].[Nd+3] + O
viscosity [mPa·s], 101.3 kPa
Conditions	x1 = 0.009316	x1 = 0.01807	x1 = 0.02726	x1 = 0.03634	x1 = 0.05266	x1 = 0.06916	x1 = 0.07185
293.15 K	1.299	1.721	2.369	3.383	6.774	14.9	17.16
298.15 K	1.159	1.53	2.106	2.967	5.8	12.34	14.09
308.15 K	0.9433	1.242	1.696	2.353	4.38	8.715	9.848

Cc1ccccn1 + CO
101 kPa
Conditions	viscosity [mPa·s]
298.23 K, x1 = 0.4451	0.774
298.23 K, x1 = 0.5511	0.782
298.25 K, x1 = 0.1201	0.641
298.28 K, x1 = 0.6483	0.784
298.28 K, x1 = 0.8299	0.76
303.15 K, x1 = 0.2351	0.671
303.16 K, x1 = 0.1201	0.6
303.22 K, x1 = 0.6483	0.733
303.22 K, x1 = 0.8299	0.714
303.25 K, x1 = 0.4451	0.722
303.26 K, x1 = 0.5511	0.729
308.17 K, x1 = 0.1201	0.562
308.23 K, x1 = 0.6483	0.686
308.23 K, x1 = 0.8299	0.669
308.25 K, x1 = 0.5511	0.682
308.26 K, x1 = 0.4451	0.676
308.38 K, x1 = 0.2351	0.625
313.21 K, x1 = 0.2351	0.587
313.22 K, x1 = 0.1201	0.522
313.27 K, x1 = 0.6483	0.645
313.27 K, x1 = 0.8299	0.631
313.28 K, x1 = 0.4451	0.633
313.28 K, x1 = 0.5511	0.641
318.25 K, x1 = 0.2351	0.55
318.26 K, x1 = 0.1201	0.49
318.29 K, x1 = 0.6483	0.606
318.29 K, x1 = 0.8299	0.592
318.35 K, x1 = 0.5511	0.601
318.36 K, x1 = 0.4451	0.594

O=C1CCCC1 + CCCCO
303.15 K, 101 kPa
Conditions	viscosity [mPa·s]
x1 = 0.101	1.725
x1 = 0.2614	1.339
x1 = 0.4183	1.143
x1 = 0.5813	1.026
x1 = 0.7417	0.974
x1 = 0.899	0.959

CC(O)CO (stereo not given) + CCO
Conditions	viscosity [mPa·s]
298.15 K, 101 kPa, x1 = 0.1	1.55
298.15 K, 101 kPa, x1 = 0.2	2.215
298.15 K, 101 kPa, x1 = 0.3	3.185
298.15 K, 101 kPa, x1 = 0.4	4.612
298.15 K, 101 kPa, x1 = 0.5	6.698
298.15 K, 101 kPa, x1 = 0.6	9.706
298.15 K, 101 kPa, x1 = 0.7	14.06
298.15 K, 101 kPa, x1 = 0.8	20.27
298.15 K, 101 kPa, x1 = 0.9	30.07
303 K, 100 kPa, x1 = 0.6	6.734
308 K, 100 kPa, x1 = 0.6	5.729
308.15 K, 101 kPa, x1 = 0.1	1.24
308.15 K, 101 kPa, x1 = 0.2	1.719
308.15 K, 101 kPa, x1 = 0.3	2.409
308.15 K, 101 kPa, x1 = 0.4	3.377
308.15 K, 101 kPa, x1 = 0.5	4.699
308.15 K, 101 kPa, x1 = 0.6	6.604
308.15 K, 101 kPa, x1 = 0.7	9.261
308.15 K, 101 kPa, x1 = 0.8	12.96
308.15 K, 101 kPa, x1 = 0.9	18.15
313 K, 100 kPa, x1 = 0.6	5.069
318 K, 100 kPa, x1 = 0.6	4.427
318.15 K, 101 kPa, x1 = 0.1	0.9282
318.15 K, 101 kPa, x1 = 0.2	1.317
318.15 K, 101 kPa, x1 = 0.3	1.854
318.15 K, 101 kPa, x1 = 0.4	2.576
318.15 K, 101 kPa, x1 = 0.5	3.527
318.15 K, 101 kPa, x1 = 0.6	4.797
318.15 K, 101 kPa, x1 = 0.7	6.46
318.15 K, 101 kPa, x1 = 0.8	8.621
318.15 K, 101 kPa, x1 = 0.9	11.43

NC1CCCCC1 + CCC(C)=O
298.15 K, 101 kPa
Conditions	viscosity [mPa·s]
x1 = 0.0747	0.5316
x1 = 0.1538	0.6621
x1 = 0.2376	0.8418
x1 = 0.3265	1.042
x1 = 0.421	1.235
x1 = 0.5217	1.449
x1 = 0.6291	1.625
x1 = 0.7441	1.781
x1 = 0.8674	1.823
x2 = 0.1326	1.574
x2 = 0.2559	1.409
x2 = 0.3708	1.257
x2 = 0.4783	1.115
x2 = 0.579	0.978
x2 = 0.6735	0.846
x2 = 0.7624	0.719
x2 = 0.8462	0.599
x2 = 0.9252	0.481
